# According to publication PMC6656724 (Communications Biology, 2019):
# How the values were obtained:
# [1] = molecular target: T1, PfKMO (Pseudomonas fluorescens, UniProt Q84HF5, C252S/C461S); experiment: Stopped-flow reduction of flavin cofactor by NADPH; format: biochemical; settings: for Reduction rate of flavin cofactor: PfKMO with saturating ligand, 2 mM NADPH, 25 °C, anaerobic
# T1 construct: made in house; host or cells: E. coli BL21 (DE3)
# Description: The reduction rate of the flavin cofactor by NADPH was measured using a stopped-flow spectrophotometer (Applied Photophysics Ltd), which was housed in an anaerobic glovebox (Belle Technology). […] The reduction of the flavin was monitored by the decrease in the absorbance of the flavin at 450 nm and transients were fitted to either double or triple exponentials.
# Supplementary Figure 13. Reduction of flavin cofactor by NADPH in the presence and absence of ligands. Anaerobic mixtures of 10 µM PfKMO with or without ligand were mixed against anaerobic 2 mM NADPH on a stopped-flow spectrophotometer at 25℃. a, 10 µM PfKMO mixed with 2 mM NADPH; b, 10 µM
# [2] = Elimination in urine after intravenous administration; format: in vivo, female C57BL/6 mouse; settings: mouse, 1 mg free base/kg i.v.
# Description: Supplementary Table 8. Elimination of inhibitor 1 in urine following single
# intravenous administration at 1 mg free base/kg to a female C57BL/6 mouse.
# Time Absolute amount of drug Amount of drug in urine
# [3] = molecular target: T1, PfKMO; experiment: Hydrogen peroxide production, o-dianisidine / horseradish peroxidase assay; format: biochemical; settings: presence and absence of L-Kyn
# Description: H2O2 production rates from PfKMO inhibitor complexes were performed using a horseradish peroxidase (HRP) assay. NADPH consumption rate was measured in the presence and absence of an excess of KMO inhibitors (400 μM). For determination of H2O2 production rates, PfKMO (0.1 μM) was incubated with 100 μM NADPH, 200 μM L-KYN, 400 μM o-dianisidine and ∼5 units HRP in the presence and absence of excess KMO inhibitors. The rate of oxidation of o-dianisidine by H2O2, catalysed by HRP, was monitored at 440 nm (Δε 440 nm = 11.3 mM^−1 cm^−1). To eliminate the L-Kyn competition binding effect, the H2O2 production rates of KMO inhibitors were also measured without L-Kyn with the same method.
# [4] = tested on: HTT93Q flies (Drosophila melanogaster model of HD); experiment: Pseudopupil assay in Drosophila model of Huntington's disease; format: in vivo
# From the text: To test the therapeutic efficacy of 1, we next employed a widely-used Drosophila melanogaster model of the inherited neurodegenerative disorder Huntington’s disease (HD)[30], which features pan-neuronal expression of a mutant huntingtin exon 1 fragment (HTT93Q). We have previously shown that several KMO inhibitors, including UPF 648 and Ro 61-8048, are neuroprotective in this Drosophila model. We thus tested the ability of 1 to ameliorate loss of photoreceptor neurons in the fly eye (rhabdomeres) using the pseudopupil assay. […] Although the efficacy of 1 may not be solely due to KMO inhibition in the fly, we have previously observed similar levels of neuroprotection with other KMO inhibitors.
# Flies were kept on standard maize food at 25 °C with a 12:12 light/dark cycle. HTT93Q exon 1 expressing flies were generated by crossing female virgins carrying the UASHTT93Qexon1 transgene[30] (a gift of Larry Marsh and Leslie Thompson, University of California, Irvine) to males of elavGAL4 [c155] driver line, obtained from the Bloomington Drosophila Stock Center. For the drug feeding experiments, inhibitor 1 was dissolved in dimethylsulfoxide (DMSO) and added to maize media at the experimental concentrations. […] At day 7, rhabdomeres were scored as previously described. […] Rhabdomeres were examined using a Nikon Optiphot-2 light microscope, with ~ 80 ommatidia scored per fly.
# T1 sequence (Q84HF5 whole entry C252S/C461S): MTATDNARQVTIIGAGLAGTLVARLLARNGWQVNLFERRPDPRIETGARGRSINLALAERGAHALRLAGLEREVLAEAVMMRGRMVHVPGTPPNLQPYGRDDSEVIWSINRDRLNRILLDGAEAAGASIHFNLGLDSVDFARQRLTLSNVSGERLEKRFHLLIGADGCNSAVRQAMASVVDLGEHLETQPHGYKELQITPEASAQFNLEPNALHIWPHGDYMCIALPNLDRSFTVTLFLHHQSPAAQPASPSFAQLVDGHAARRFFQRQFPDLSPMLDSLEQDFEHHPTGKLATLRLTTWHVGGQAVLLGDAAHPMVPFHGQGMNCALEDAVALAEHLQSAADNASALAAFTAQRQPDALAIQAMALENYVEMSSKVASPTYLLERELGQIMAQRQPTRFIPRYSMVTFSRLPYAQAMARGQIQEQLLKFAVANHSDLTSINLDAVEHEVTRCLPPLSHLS
SMILES,Reduction rate of flavin cofactor [1] [s⁻¹],Absolute amount of drug recovered in urine ([2]; 0 - 8 h) [µg],Amount of drug in urine recovered ([2]; 0 - 8 h) [% Dose],Absolute amount of drug recovered in urine ([2]; 8 - 24 h) [µg],Amount of drug in urine recovered ([2]; 8 - 24 h) [% Dose],Stimulation of KMO reduction by NADPH ([1]; rapid mixing stopped-flow assays),H2O2 production [3],"Neurodegeneration prevented ([4]; HD flies, 100 μM, 7 days)","Reduction in neuron loss (rhabdomeres) ([4]; HTT93Q flies, 10 μM or 100 μM for 7 days, vs untreated or DMSO)"
"Cc1cc2c(c(C)c1Cl)N(Cc1nn[nH]n1)C(=O)CO2 [1h, 6-chloro-5,7-dimethyl-4-(2H-tetrazol-5-ylmethyl)-1,4-benzoxazin-3-one]",0.09 ± 0.001,,,,,,,,
"Cc1cc2c(c(C)c1Cl)N(CC(=O)O)C(=O)CO2 [compound 1, (6-chloro-5,7-dimethyl-3-oxo-2,3-dihydro-4H-1,4-benzoxazin-4-yl) acetic acid]",0.13 ± 0.005,8.67,30.3,0.15,0.5,do not stimulate,not detected,~ 57%,significant dose-dependent reduction
